# The NIST ThermoML archive (doi:10.1021/je2010038)
# ± gives the expanded uncertainty stated by the source.
# How the values were obtained:
# [1] = for mass density: Liquid, Vibrating tube method; for surface tension liquid-gas: Pendant drop shape
# [2] = xn = mol fraction of the nth substance listed; conditions: x2 = 0; for surface tension liquid-gas: Pendant drop shape; for mass density: Liquid, Vibrating tube method
structure (smiles),measurement,setting,value
NCCO [2-aminoethan-1-ol],mass density,"[1]; 298.15 K, 101 kPa",1011.9 ± 0.7 kg/m3
same,surface tension liquid-gas,[1]; 303.15 K,48.13 ± 0.63 mN/m
same,mass density,"[1]; 303.15 K, 101 kPa",1008 ± 0.7 kg/m3
same,mass density,"[1]; 308.15 K, 101 kPa",1004 ± 0.7 kg/m3
same,surface tension liquid-gas,[1]; 313.15 K,46.66 ± 0.63 mN/m
same,mass density,"[1]; 313.15 K, 101 kPa",1000 ± 0.7 kg/m3
same,mass density,"[1]; 318.15 K, 101 kPa",996 ± 0.7 kg/m3
same,surface tension liquid-gas,[1]; 323.15 K,45.58 ± 0.62 mN/m
same,mass density,"[1]; 323.15 K, 101 kPa",992 ± 0.7 kg/m3
same,mass density,"[1]; 328.15 K, 101 kPa",988 ± 0.7 kg/m3
same,surface tension liquid-gas,[1]; 333.15 K,44.63 ± 0.62 mN/m
same,mass density,"[1]; 333.15 K, 101 kPa",983.9 ± 0.7 kg/m3
same,mass density,"[1]; 338.15 K, 101 kPa",979.8 ± 0.7 kg/m3
same,mass density,"[1]; 343.15 K, 101 kPa",975.8 ± 0.7 kg/m3
same,mass density,"[1]; 348.15 K, 101 kPa",971.6 ± 0.7 kg/m3
same,mass density,"[1]; 353.15 K, 101 kPa",967.5 ± 0.7 kg/m3
same,mass density,"[1]; 358.15 K, 101 kPa",963.4 ± 0.7 kg/m3
same,mass density,"[1]; 363.15 K, 101 kPa",959.2 ± 0.7 kg/m3
same,mass density,"[1]; 373.1 K, 700 kPa",950.9 ± 0.7 kg/m3
same,mass density,"[1]; 383.15 K, 700 kPa",942.3 ± 0.7 kg/m3
same,mass density,"[1]; 393.15 K, 700 kPa",933.5 ± 0.7 kg/m3
same,mass density,"[1]; 403.15 K, 700 kPa",924.7 ± 0.7 kg/m3
same,mass density,"[1]; 413.15 K, 700 kPa",915.7 ± 0.7 kg/m3
same,mass density,"[1]; 423.15 K, 700 kPa",906.4 ± 0.7 kg/m3
O [water] + NCCO,surface tension liquid-gas,[2]; 303.15 K,71.3 ± 0.76 mN/m
same,surface tension liquid-gas,[2]; 313.15 K,69.55 ± 0.75 mN/m
same,surface tension liquid-gas,[2]; 323.15 K,67.98 ± 0.74 mN/m
same,mass density,"[2]; 323.15 K, 101 kPa",988 ± 0.7 kg/m3
same,mass density,"[2]; 328.15 K, 101 kPa",985.7 ± 0.7 kg/m3
same,surface tension liquid-gas,[2]; 333.15 K,66.16 ± 0.73 mN/m
same,mass density,"[2]; 333.15 K, 101 kPa",983.2 ± 0.7 kg/m3
same,mass density,"[2]; 338.15 K, 101 kPa",980.5 ± 0.7 kg/m3
same,mass density,"[2]; 343.15 K, 101 kPa",977.7 ± 0.7 kg/m3
same,mass density,"[2]; 348.15 K, 101 kPa",974.8 ± 0.7 kg/m3
same,mass density,"[2]; 353.15 K, 101 kPa",971.8 ± 0.7 kg/m3
same,mass density,"[2]; 358.15 K, 101 kPa",968.6 ± 0.7 kg/m3
same,mass density,"[2]; 363.15 K, 101 kPa",965.3 ± 0.7 kg/m3
same,mass density,"[2]; 373.1 K, 700 kPa",958.6 ± 0.7 kg/m3
same,mass density,"[2]; 383.15 K, 700 kPa",951.2 ± 0.7 kg/m3
same,mass density,"[2]; 393.15 K, 700 kPa",943.4 ± 0.7 kg/m3
same,mass density,"[2]; 403.15 K, 700 kPa",935.1 ± 0.7 kg/m3
same,mass density,"[2]; 413.15 K, 700 kPa",926.3 ± 0.7 kg/m3
same,mass density,"[2]; 423.15 K, 700 kPa",917.1 ± 0.7 kg/m3
